Measurements taken from PubChem BioAssay (NCI).
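Protocol summary: plate cells (96-well), add compound at 5 concentrations, incubate 48 h, interpolate endpoints linearly. TGI marks complete inhibition of growth.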

Tests used:
Assay in all cases: growth of human tumour cells (NCI), 48 h
HOP-92 NSCLC = tested on: HOP-92 NSCLC
RXF 393 renal = tested on: RXF 393 renal
A549 NSCLC = tested on: A549 NSCLC
SW-620 colon = tested on: SW-620 colon
SNB-19 CNS = tested on: SNB-19 CNS
ACHN renal = tested on: ACHN renal
MOLT-4 leukemia = tested on: MOLT-4 leukemia
MCF7 breast = tested on: MCF7 breast
NCI-H460 lung = tested on: NCI-H460 lung
CCRF-CEM leukemia = tested on: CCRF-CEM leukemia
U251 CNS = tested on: U251 CNS
UACC-257 melanoma = tested on: UACC-257 melanoma
MDA-N = tested on: MDA-N
DU-145 prostate = tested on: DU-145 prostate
HOP-62 NSCLC = tested on: HOP-62 NSCLC
SF-295 CNS = tested on: SF-295 CNS
IGROV1 ovarian = tested on: IGROV1 ovarian
HCT-116 colon = tested on: HCT-116 colon
HL-60(TB) leukemia = tested on: HL-60(TB) leukemia
HCT-15 colon = tested on: HCT-15 colon
MDA-MB-435 = tested on: MDA-MB-435
A498 renal = tested on: A498 renal
HT29 colon = tested on: HT29 colon
UO-31 renal = tested on: UO-31 renal
PC-3 prostate = tested on: PC-3 prostate
OVCAR-4 ovarian = tested on: OVCAR-4 ovarian
OVCAR-5 ovarian = tested on: OVCAR-5 ovarian
SN12C renal = tested on: SN12C renal
K-562 leukemia = tested on: K-562 leukemia
KM12 colon = tested on: KM12 colon
RPMI-8226 leukemia = tested on: RPMI-8226 leukemia
EKVX NSCLC = tested on: EKVX NSCLC
SK-MEL-28 melanoma = tested on: SK-MEL-28 melanoma
NCI-H226 lung = tested on: NCI-H226 lung
BT-549 breast = tested on: BT-549 breast
M14 melanoma = tested on: M14 melanoma
SNB-75 CNS = tested on: SNB-75 CNS
COLO 205 colon = tested on: COLO 205 colon
SK-OV-3 ovarian = tested on: SK-OV-3 ovarian
T-47D breast = tested on: T-47D breast
OVCAR-8 ovarian = tested on: OVCAR-8 ovarian
OVCAR-3 ovarian = tested on: OVCAR-3 ovarian
SK-MEL-2 melanoma = tested on: SK-MEL-2 melanoma
UACC-62 melanoma = tested on: UACC-62 melanoma
SR leukemia = tested on: SR leukemia
786-0 renal = tested on: 786-0 renal
NCI-H23 lung = tested on: NCI-H23 lung
NCI/ADR-RES ovarian = tested on: NCI/ADR-RES ovarian
SF-539 CNS = tested on: SF-539 CNS
HS 578T breast = tested on: HS 578T breast
CAKI-1 renal = tested on: CAKI-1 renal
HCC-2998 colon = tested on: HCC-2998 colon
SF-268 CNS = tested on: SF-268 CNS
TK-10 renal = tested on: TK-10 renal
MDA-MB-231 breast = tested on: MDA-MB-231 breast
NCI-H522 lung = tested on: NCI-H522 lung
MALME-3M melanoma = tested on: MALME-3M melanoma
SK-MEL-5 melanoma = tested on: SK-MEL-5 melanoma

Question: For `COc1cc(C2c3cccc4cccc(c34)C3CCC(=O)N32)cc(OC)c1O` (stereo not drawn), which TGI (HOP-92 NSCLC) is on record?
Answer: > 50 µM

Question: What about the TGI (RXF 393 renal) of the same compound?
Answer: > 50 µM

Question: And the TGI (A549 NSCLC)?
Answer: > 50 µM

Question: What about the TGI (SW-620 colon) of the same compound?
Answer: > 50 µM

Question: And the TGI (SNB-19 CNS)?
Answer: > 50 µM

Question: What about the TGI (ACHN renal) of the same compound?
Answer: > 50 µM

Question: And the TGI (MOLT-4 leukemia)?
Answer: > 50 µM

Question: What about the TGI (MCF7 breast) of the same compound?
Answer: > 50 µM

Question: What about the TGI (NCI-H460 lung) of the same compound?
Answer: > 50 µM

Question: What about the TGI (CCRF-CEM leukemia) of the same compound?
Answer: > 50 µM

Question: And the TGI (U251 CNS)?
Answer: > 50 µM

Question: And the TGI (UACC-257 melanoma)?
Answer: > 50 µM

Question: What about the TGI (MDA-N) of the same compound?
Answer: > 50 µM

Question: What about the TGI (DU-145 prostate) of the same compound?
Answer: > 50 µM

Question: What about the TGI (HOP-62 NSCLC) of the same compound?
Answer: > 50 µM

Question: What about the TGI (SF-295 CNS) of the same compound?
Answer: > 50 µM

Question: What about the TGI (IGROV1 ovarian) of the same compound?
Answer: > 50 µM

Question: And the TGI (HCT-116 colon)?
Answer: > 50 µM

Question: And the TGI (HL-60(TB) leukemia)?
Answer: > 50 µM

Question: What about the TGI (HCT-15 colon) of the same compound?
Answer: > 50 µM

Question: And the TGI (MDA-MB-435)?
Answer: > 50 µM

Question: What about the TGI (A498 renal) of the same compound?
Answer: > 50 µM

Question: What about the TGI (HT29 colon) of the same compound?
Answer: > 50 µM

Question: What about the TGI (UO-31 renal) of the same compound?
Answer: > 50 µM

Question: What about the TGI (PC-3 prostate) of the same compound?
Answer: > 50 µM

Question: What about the TGI (OVCAR-4 ovarian) of the same compound?
Answer: > 50 µM

Question: And the TGI (OVCAR-5 ovarian)?
Answer: > 50 µM

Question: What about the TGI (SN12C renal) of the same compound?
Answer: > 50 µM

Question: And the TGI (K-562 leukemia)?
Answer: > 50 µM

Question: What about the TGI (KM12 colon) of the same compound?
Answer: > 50 µM

Question: And the TGI (RPMI-8226 leukemia)?
Answer: > 50 µM

Question: And the TGI (EKVX NSCLC)?
Answer: > 50 µM

Question: And the TGI (SK-MEL-28 melanoma)?
Answer: > 50 µM

Question: What about the TGI (NCI-H226 lung) of the same compound?
Answer: > 50 µM

Question: And the TGI (BT-549 breast)?
Answer: > 50 µM

Question: And the TGI (M14 melanoma)?
Answer: > 50 µM

Question: What about the TGI (SNB-75 CNS) of the same compound?
Answer: > 50 µM

Question: And the TGI (COLO 205 colon)?
Answer: > 50 µM

Question: And the TGI (SK-OV-3 ovarian)?
Answer: > 50 µM

Question: And the TGI (T-47D breast)?
Answer: > 50 µM

Question: And the TGI (OVCAR-8 ovarian)?
Answer: > 50 µM

Question: What about the TGI (OVCAR-3 ovarian) of the same compound?
Answer: > 50 µM

Question: What about the TGI (SK-MEL-2 melanoma) of the same compound?
Answer: > 50 µM

Question: What about the TGI (UACC-62 melanoma) of the same compound?
Answer: > 50 µM

Question: And the TGI (SR leukemia)?
Answer: > 50 µM

Question: What about the TGI (786-0 renal) of the same compound?
Answer: > 50 µM

Question: And the TGI (NCI-H23 lung)?
Answer: > 50 µM

Question: And the TGI (NCI/ADR-RES ovarian)?
Answer: > 50 µM

Question: And the TGI (SF-539 CNS)?
Answer: > 50 µM

Question: How did the TGI (A549 NSCLC) turn out when `O=C(Nc1ccc(Br)c2ccccc12)c1ccc2ccccc2c1O` was run?
Answer: 11 µM

Question: What about the TGI (SW-620 colon) of the same compound?
Answer: 14.8 µM

Question: What about the TGI (SNB-19 CNS) of the same compound?
Answer: > 100 µM

Question: And the TGI (ACHN renal)?
Answer: > 100 µM

Question: And the TGI (MOLT-4 leukemia)?
Answer: > 100 µM

Question: And the TGI (MCF7 breast)?
Answer: 25.8 µM

Question: What about the TGI (NCI-H460 lung) of the same compound?
Answer: 13.1 µM

Question: What about the TGI (CCRF-CEM leukemia) of the same compound?
Answer: > 100 µM

Question: And the TGI (U251 CNS)?
Answer: 35.2 µM

Question: What about the TGI (UACC-257 melanoma) of the same compound?
Answer: 23.9 µM

Question: What about the TGI (MDA-N) of the same compound?
Answer: 15.6 µM

Question: What about the TGI (DU-145 prostate) of the same compound?
Answer: 85.4 µM

Question: What about the TGI (HS 578T breast) of the same compound?
Answer: 13.5 µM

Question: And the TGI (HOP-62 NSCLC)?
Answer: 14.8 µM

Question: What about the TGI (SF-295 CNS) of the same compound?
Answer: 8.65 µM

Question: What about the TGI (IGROV1 ovarian) of the same compound?
Answer: 16.4 µM

Question: What about the TGI (HCT-116 colon) of the same compound?
Answer: 11.2 µM

Question: What about the TGI (HL-60(TB) leukemia) of the same compound?
Answer: 88.8 µM

Question: And the TGI (HCT-15 colon)?
Answer: 7.1 µM

Question: What about the TGI (A498 renal) of the same compound?
Answer: 30.8 µM

Question: What about the TGI (CAKI-1 renal) of the same compound?
Answer: 25.2 µM

Question: And the TGI (HT29 colon)?
Answer: 15.3 µM

Question: And the TGI (UO-31 renal)?
Answer: 12.9 µM

Question: What about the TGI (PC-3 prostate) of the same compound?
Answer: 6.21 µM

Question: What about the TGI (OVCAR-4 ovarian) of the same compound?
Answer: > 100 µM

Question: And the TGI (OVCAR-5 ovarian)?
Answer: 12.7 µM

Question: And the TGI (SN12C renal)?
Answer: 24.9 µM

Question: What about the TGI (HCC-2998 colon) of the same compound?
Answer: 20.9 µM

Question: What about the TGI (K-562 leukemia) of the same compound?
Answer: > 100 µM

Question: What about the TGI (KM12 colon) of the same compound?
Answer: 13.7 µM

Question: And the TGI (EKVX NSCLC)?
Answer: > 100 µM

Question: And the TGI (SF-268 CNS)?
Answer: 31.8 µM

Question: What about the TGI (TK-10 renal) of the same compound?
Answer: 30.3 µM

Question: And the TGI (SK-MEL-28 melanoma)?
Answer: 48.1 µM

Question: And the TGI (NCI-H226 lung)?
Answer: 6.39 µM

Question: And the TGI (BT-549 breast)?
Answer: 11.3 µM

Question: And the TGI (M14 melanoma)?
Answer: 18.3 µM

Question: What about the TGI (SNB-75 CNS) of the same compound?
Answer: 8.68 µM

Question: What about the TGI (COLO 205 colon) of the same compound?
Answer: 5.49 µM

Question: And the TGI (SK-OV-3 ovarian)?
Answer: 18.6 µM

Question: What about the TGI (MDA-MB-231 breast) of the same compound?
Answer: 16.8 µM

Question: What about the TGI (T-47D breast) of the same compound?
Answer: 14.5 µM

Question: And the TGI (OVCAR-8 ovarian)?
Answer: 19.2 µM

Question: What about the TGI (OVCAR-3 ovarian) of the same compound?
Answer: 35.7 µM

Question: And the TGI (SK-MEL-2 melanoma)?
Answer: 3 µM

Question: What about the TGI (NCI-H522 lung) of the same compound?
Answer: 6.83 µM

Question: And the TGI (UACC-62 melanoma)?
Answer: 15 µM

Question: What about the TGI (MALME-3M melanoma) of the same compound?
Answer: 9.3 µM

Question: And the TGI (SR leukemia)?
Answer: > 100 µM

Question: And the TGI (786-0 renal)?
Answer: 15.9 µM

Question: What about the TGI (NCI-H23 lung) of the same compound?
Answer: 10.2 µM

Question: What about the TGI (SK-MEL-5 melanoma) of the same compound?
Answer: 3.78 µM

Question: And the TGI (NCI/ADR-RES ovarian)?
Answer: 12.9 µM

Question: And the TGI (SF-539 CNS)?
Answer: 24.9 µM
